The text below walks through data of patent publication US9610370B2, “Compositions and methods for tumor imaging and targeting by a class of organic heptamethine cyanine dyes that possess dual nuclear and near-infrared properties” (University of Virginia Patent Foundation, priority 2011, dated 2017).

Like-named read-outs stand apart in the source and are kept apart here.

One data set concerns MCF-7 xenografts. Put plainly: NIR fluorescence imaging, in vivo and ex vivo, of mice with MCF-7 xenografts. Conditions: dissected tumor, ex vivo, FIG. 7. The method, then: FIG. 2 depicts the NIR fluorescence image of PC-002 with a nude mouse (20 g) with MCF-7 tumor xenografts in accordance with various embodiments of the present invention. PC-002 (10 nmol) in saline (200 ul) was injected via tail vein. The live fluorescence images were performed at time points (as indicated) post injection using an IVIS Spectrum device (Ex/Em=745/800 nm).
FIG. 7 depicts the correlation of PC-002 uptake and ex vivo images in accordance with various embodiments of the present invention. A MCF-7 xenograft tumor was dissected and cut into two halves.
The optical imaging property of “cold” counterpart of PC-002, comprising stable copper isotope, was evaluated with mice models with MCF-7, C4-2, and ARCaPM tumors. In mice with MCF-7 xenografts, tumor uptake of PC-002 was discernable at 3 hrs post injection and contrast of tumor and normal tissues reached most profound at 24 hrs post injection (FIG. 2).
At 24 hrs post PC-002 injection, a MCF-7 xenograft tumor was dissected and cut into two halves. The viable sections of the tumor in white, right photograph matched with PC-002 fluorescence distribution performed using a Caliper Spectrum device (FIG. 7). The cancer cells in the microscopic image of the H/E stained tumor slice were also overlapped with PC-002 NIR fluorescence of the same tumor slice.

The subject of data set [1] is subcutaneous C4-2 or tibial ARCaPM tumors. Put plainly: Ex vivo fluorescent imaging and frozen-section microscopy of harvested tumors and soft tissues. In kind it is in vivo, mice. On the procedure:
FIG. 11 depicts the harvested bone ARCaPM and subcutaneous C4-2 human prostate tumors embedded with OCT at −25° C. and subjected to frozen sectioning using Cryostat in accordance with various embodiments of the present invention. The frozen sections were fixed and aqueously mounted and imaged using fluorescent microscopy (200× magnification). Note the Dual Nuclear/NIR Agent was actively uptaken into tumor cells.
The PC-002 (2 nmole) was intravenously injected into mouse with either subcutaneous C4-2 or tibial ARCaPM tumors and the mice were subjected to fluorescent imaging using the Xenogen Imaging System at the interval of 1 h, 2 h, 4 h, 8 h, 10 h, 12 h, 24 h and 48 h after the dye injection. The fluorescence signal was found accumulating in subcutaneous C4-2 tumor beginning at 24 hr while the signal was found at 2 hr in the in intratibial ARCaPM tumor in mouse skeleton (FIG. 9).
The harvested bone (ARCaPM) and subcutaneous (C4-2) tumors were embedded with OCT at −25° C. and subjected to frozen sectioning using Cryostat.

Data set [2] is described as follows: Blood clearance in nude mice. Conditions: mouse, in vivo. On the procedure: FIG. 6 depicts the blood clearance curve of PC-002 in nude mice in accordance with various embodiments of the present invention. The T1/2 is 256.9±13.2 min. (N=3).
The half-life (T1/2) of PC-001, PC-002, and PC-003 is 3, 4.3, and 3 hours, respectively. The long blood circulation times results in good images taken at later hours; for example, 24 to 72 hrs post injection.

Another data set has as its system MCF-7 xenograft tumors. The experiment in a line: Nuclear imaging (microPET/microSPECT) of mice with MCF-7 xenograft tumors. Conditions: for visualization of breast tumors in maximal projection images: PC-002 at 48 h post ip, 18F-FDG at 1.5 h post iv, same mouse, FIG. 4. In kind it is in vivo. The method, then:
FIG. 1 depicts the SPECT/CT image of PC-001 with a nude mouse model of a human breast cancer MCF-7 xenograft in accordance with various embodiments of the present invention. […] SPECT/CT scan was performed at 20 h post injection.
FIG. 3 depicts the transverse PET images of PC-002 at 24 and 48 h post ip injection and ^18F-FDG at 1.5 h post iv injection of the same mouse (20 g) harbored with MCF-7 tumor xenografts in accordance with various embodiments of the present invention.
FIG. 4 depicts the comparison of maximal projection images (MPIs) of PC-002 at 48 h post ip injection and ^18F-FDG at 1.5 h post iv injection of the same mouse (20 g) harbored with MCF-7 tumor xenografts in accordance with various embodiments of the present invention.
FIG. 8 depicts the transverse PET images of PC-003 at 48 and 72 h post ip injection and with the same mouse (20 g) with MCF-7 tumor xenografts in accordance with various embodiments of the present invention.
PC-001, PC-002, and PC-003 were evaluated as nuclear imaging probe using mice with MCF-7 xenograft tumors. […] PC-002/PET images were compared with FDG/PET with same mice.

Data set [3] concerns xenograft prostate tumors. Put plainly: PET imaging of xenograft prostate tumors. Conditions: FIG. 16. In kind it is in vivo, mice. From the text: FIGS. 16A-D illustrate PET imaging of xenograft prostate tumors.
In the past, several attractive PET probes, such as ^18F-2-fluoro-2-deoxy-D-glucose (18 F-FDG) or 111In-tagged antibodies, and more recently the development of smaller sized versions of antibodies such as diabodies and minibodies recognizing PSMA and PSCA, have been proposed to detect PCa; but because of their relative large molecular weight as antibodies, potential host immune response to foreign antibodies, and the lack of Pca specificity using 18F-FDG, application of PET/SPECT probe to detect PCa has not been successful. […] As a small molecule, PC-002 has the advantages of being non-immunogenic, easier to purify and to scale-up, and higher stability for storage and shipping. Because of suboptimal NIR dye signal penetration through deep tissues, we chemically synthesized PC-002, a lead PET 64Cu-DOTA-NIR dye30, to facilitate future translation to the clinic. […] Based on this highly promising result, 64Cu-DOTA-based NIR dye for imaging PCa bone and soft tissue metastases can be used concurrently with 99 mTc-MDP to detect reactive bone activity. For example, this strategy can be used in the robust mouse models of PCa metastasis developed by our laboratory. […]

The subject of another data set is OATP. Conditions: cited from earlier work.
The subject of data set [4] is human and mouse cancer cell lines in vitro and tumor xenografts in vivo. Conditions: cited from earlier work.

In the case of `CC1(C)C(/C=C/C2=C(Cl)C(=C/C=C3/N(CCCCCC(=O)NCCCCC(NC(=O)C[N+]45CC[N+]6(CC(=O)[O-])CC[N+]7(CC(=O)[O-])CC[N+](CC(=O)O)(CC4)[64Cu-2]765)C(=O)O)c4ccccc4C3(C)C)/CCC2)=[N+](CCCCCC(=O)O)c2ccccc21` (centres unmarked) [PC-002], the “association of NIR and PC-002 signals with tumor tissue type” value in the data set on MCF-7 xenografts is “associated with viable and not necrotic tissues”. The “uptake in frozen sections, fluorescent microscopy” value in data set [1] (200× magnification, FIG. 11) is listed as “selectively uptaken in cancer cells”. For the same compound, the “uptake and retention, ex vivo fluorescent imaging” value in data set [1] (harvested at 24 hrs post injection, FIG. 10) was “in tumor only”. Moreover, the half-life in data set [2] (half-life (T1/2), blood clearance) is 4.3 h; in data set [2] (nude mice, N=3, FIG. 6, read-out: blood clearance T1/2) it was 4.28 ± 0.22 h. In addition, in the data set with MCF-7 xenograft tumors (FIG. 5), the “SUV of MCF-7 tumor relative to hind leg muscles” value is on record as 6 times. Further, in the data set on MCF-7 xenograft tumors, the “visualization of breast tumors in maximal projection images” value was “clearly visualized”. Also, the “suitability as nuclear imaging probe” value with MCF-7 xenograft tumors (microPET or microSPECT) was “suitable candidates for molecular imaging of cancer”. Besides, the “tumor contrast and selectivity compared with FDG/PET” value in the data set with MCF-7 xenograft tumors (same mice, FIGS. 3 and 4) is “higher tumor contrast and selectivity than FDG”. For the same compound, in data set [3], the “selectivity for tumor xenografts” value was “remarkable selectivity”.
For `OC[C@H]1OC(O)[C@H]([18F])[C@@H](O)[C@@H]1O` (stereo partly drawn) [FDG, 18F-2-fluoro-2-deoxy-D-glucose, reference compound], in the data set on MCF-7 xenograft tumors, the “visualization of breast tumors in maximal projection images” value is on record as “only barely seen”.
Regarding `O=C1OC(c2ccc(O)c(S(=O)(=O)O)c2)(c2ccc(O)c(S(=O)(=O)O)c2)c2c(Br)c(Br)c(Br)c(Br)c21` [BSP], the “effect on NIR dye uptake” value in the data set with OATP was “completely blocked”.
Turning to `CC1(C)C(=CC=C2CCCC(C=CC3=[N+](CCCCS(=O)(=O)[O-])c4ccccc4C3(C)C)=C2Cl)N(CCCCS(=O)(=O)[O-])c2ccccc21.[Na+]` [IR783], the “uptake and retention by cancer cell lines and tumor xenografts” value in data set [4] is “uptake and retention”.
Turning to `CCCN1/C(=C/C=C2\CCCC(/C=C/C3=[N+](CCC)c4ccccc4C3(C)C)=C2Cl)C(C)(C)c2ccccc21.[I-]` [IR-780], in data set [4], the “uptake and retention by cancer cell lines and tumor xenografts” value was “uptake and retention”.
